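The compound was tested at five concentrations on cells cultured in 96-well plates, with a 48-hour exposure period. At the GI50, growth is halved.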 Active and inactive are the calls of the source. Cut-off read from the data, not from the text of the source: active = GI50 up to about 1.1 µM and inactive = higher.
Key:
Experiment in all cases: NCI tumour cell line growth inhibition, 48 h
[1] = system: NCI-H23
[2] = system: BT-549
[3] = system: CAKI-1
[4] = system: OVCAR-3
[5] = system: OVCAR-8
[6] = system: K562
[7] = system: UACC-257
[8] = system: UO-31
[9] = system: HOP-92
[10] = system: HL-60
[11] = system: RPMI-8226
[12] = system: RXF 393
[13] = system: COLO 205
[14] = system: OVCAR-5
[15] = system: Hs-578T
[16] = system: SK-MEL-2
[17] = system: NCI-H522
[18] = system: A549
[19] = system: SNB-75
[20] = system: CCRF-CEM

O=[N+]([O-])c1ccc(/C=C(/c2ccc([N+](=O)[O-])o2)S(=O)(=O)c2ccccc2)cc1
GI50 [1]: 59 µM (inactive) | GI50 [2]: 36.1 µM (inactive) | GI50 [3]: > 100 µM (inactive) | GI50 [4]: 97.9 µM (inactive) | GI50 [5]: 29.4 µM (inactive) | GI50 [6]: 36.2 µM (inactive) | GI50 [7]: 29.4 µM (inactive) | GI50 [8]: > 100 µM (inactive) | GI50 [9]: > 100 µM (inactive) | GI50 [10]: 17.5 µM (inactive) | GI50 [11]: 13.7 µM (inactive) | GI50 [12]: > 100 µM (inactive) | GI50 [13]: 47.6 µM (inactive) | GI50 [14]: > 100 µM (inactive) | GI50 [15]: 26.1 µM (inactive) | GI50 [16]: > 100 µM (inactive) | GI50 [17]: 39.4 µM (inactive) | GI50 [18]: > 100 µM (inactive) | GI50 [19]: > 100 µM (inactive)

O=C1CSC(c2cccc(Oc3ccccc3)c2)N1c1cc(Cl)ccc1Cl (configuration not stated)
GI50 [1]: 31.9 µM (inactive) | GI50 [2]: 19.1 µM (inactive) | GI50 [3]: 22.5 µM (inactive) | GI50 [4]: 22.1 µM (inactive) | GI50 [5]: 23.7 µM (inactive) | GI50 [6]: 19.4 µM (inactive) | GI50 [7]: 22.7 µM (inactive) | GI50 [8]: 23.3 µM (inactive) | GI50 [9]: 16.4 µM (inactive) | GI50 [10]: 27.3 µM (inactive) | GI50 [20]: 17.2 µM (inactive) | GI50 [12]: 18.5 µM (inactive) | GI50 [13]: 36.7 µM (inactive) | GI50 [14]: 27.7 µM (inactive) | GI50 [15]: 29.7 µM (inactive) | GI50 [16]: 18.7 µM (inactive) | GI50 [17]: 20.9 µM (inactive) | GI50 [18]: 48 µM (inactive) | GI50 [19]: 26.4 µM (inactive)

CC(C)(C)c1ccc(OC(=O)Nc2ccc(O)c(C(=O)O)c2)cc1
GI50 [1]: > 100 µM (inactive) | GI50 [2]: > 100 µM (inactive) | GI50 [3]: > 100 µM (inactive) | GI50 [4]: > 100 µM (inactive) | GI50 [5]: > 100 µM (inactive) | GI50 [6]: > 100 µM (inactive) | GI50 [7]: > 100 µM (inactive) | GI50 [9]: > 100 µM (inactive) | GI50 [10]: 30.7 µM (inactive) | GI50 [20]: > 100 µM (inactive) | GI50 [11]: > 100 µM (inactive) | GI50 [12]: > 100 µM (inactive) | GI50 [13]: > 100 µM (inactive) | GI50 [14]: > 100 µM (inactive) | GI50 [15]: > 100 µM (inactive) | GI50 [16]: > 100 µM (inactive) | GI50 [17]: > 100 µM (inactive) | GI50 [18]: > 100 µM (inactive) | GI50 [19]: > 100 µM (inactive)

CC[C@](O)(C(=O)O)c1cc2n(c(=O)c1CO)Cc1cc3ccccc3nc1-2
GI50 [1]: 0.025 µM (active) | GI50 [2]: 0.0791 µM (active) | GI50 [3]: 0.025 µM (active) | GI50 [8]: 0.0372 µM (active) | GI50 [9]: 0.112 µM (active) | GI50 [10]: 0.025 µM (active) | GI50 [20]: 0.025 µM (active) | GI50 [12]: 0.0384 µM (active) | GI50 [13]: 0.234 µM (active) | GI50 [14]: 0.0566 µM (active) | GI50 [15]: 6.05 µM (inactive) | GI50 [16]: 0.23 µM (active) | GI50 [17]: 0.0306 µM (active) | GI50 [18]: 0.0261 µM (active) | GI50 [19]: 0.0333 µM (active)
